# Results taken from patent US20240307350A1, “5-METHOXY-N,N-DIMETHYLTRYPTAMINE (5-MEO-DMT) FOR TREATING DEPRESSION” (GH RESEARCH IRELAND LIMITED, priority 2019, published 2024).
# What was measured:
# healthy volunteers [1] = experiment: Clinical trial in healthy volunteers: intensity of the psychedelic effects (PPEQ); type: in vivo, human; settings: for PPEQ Intensity (0-100) / PPEQ Loss of Control (0-100) / PPEQ Profoundness (0-100) / PPEQ Total Score (0-100): group average
# Procedure: (§1) A clinical trial was performed in which 5-MeO-DMT free base (purity not less than 99%) at different dose levels was administered via inhalation (as described in Example 1) in a single day to healthy volunteers who had prior experiences with the use of synthetic or naturally-occurring psychedelics. The trial was reviewed and approved by the relevant national competent authority and local medical ethics committee. The trial consisted of two parts: Part A, where single doses of 5-MeO-DMT dosage amounts of 2 mg, 6 mg, 12 mg and 18 mg were administered; and Part B, where an initial 5-MeO-DMT dosage amount of 6 mg was administered, and then, unless the participant had already experienced a peak psychedelic experience based on the PPEQ or the supervising physician had decided that further dose increases were inappropriate based on observed side effects, further subsequent dosage amounts of 12 mg and 18 mg were administered with about 3 hours in between each administration. Participants in Part A only received one dose and were not allowed to receive higher doses in later parts of Part A and were not allowed to participate in Part B. Participants were closely monitored for 3.5 hours after the last dose, with additional follow-up visits 1 day and 7 days after dosing. Various safety related measures (e.g., adverse event reporting, safety laboratory analyses, vital signs, ECG, CADSS, PVT, DSST, Prospective Memory Task (PMT)) as well as measures of the intensity of the psychedelic effects (MEQ30, ASC, PPEQ, subjective description of the psychedelic experience) were recorded. Pharmacokinetic analysis of 5-MeO-DMT and bufotenine plasma levels was performed at 1 hour and 3 hours after drug administration in Part A, and at 3 hours after drug administration in Part B.
# (§2) 18 participants were recruited into Part A of the study and 4 participants were recruited into Part B. 9 Participants were female and 13 participants were male. Median age was 29 years (range: 19 to 42 years). In Part A, 4 participants received 2 mg, 6 participants received 6 mg, 4 participants received 12 mg and 4 participants received 18 mg of 5-MeO-DMT. In Part B, 1 participant received 6 mg, 2 participants received 6 mg and then 12 mg and one participant received 6 mg, 12 mg and then 18 mg of 5-MeO-DMT.
# The Peak Psychedelic Experience Questionnaire (PPEQ) has been developed by the inventor as an improved alternative to the oceanic boundlessness dimension of the ASC and the MEQ30 to allow a simpler and quicker assessment of the intensity of a psychedelic experience. The PPEQ is comprised of three questions, all to be scored from 0 to 100 by marking a Visual Analogue Scale between 0 and 100 mm: • 1. How intense was the experience? • 2. To what extent did you lose control? • 3. How profound (i.e., deep and significant) was the experience?
# The PPEQ Total Score is the average of the scores of the three questions. A “peak psychedelic experience” is identified through achievement of a PPEQ Total Score of at least 75. A statistically significant correlation between the PPEQ Total Score and the oceanic boundlessness dimension of the ASC, respectively the MEQ30 Total Score, has been observed in the data set described in Example 3.
# healthy volunteers [2] = experiment: Clinical trial of inhaled 5-MeO-DMT in healthy volunteers: safety and tolerability; type: in vivo, human
# Procedure: as §1, §2
# [3] = Part B max. dose (n = 4), highest dose for each participant (6, 12 or 18 mg)
# [4] = Part A, 2 mg (n = 4), Administration day, mild
# [5] = Part A, 6 mg (n = 6), Administration day, mild
# [6] = Part A, 6 mg (n = 6), Day 1, mild
# [7] = Part A, 18 mg (n = 4), Administration day, mild
# [8] = Part A, 18 mg (n = 4), Day 1, mild
# [9] = Part B, 12 mg (n = 3), after 6 mg, Administration day, mild
smiles,measurement,setting,value
"COc1ccc2[nH]cc(CCN(C)C)c2c1 [5-MeO-DMT, 5-methoxy-N,N-dimethyltryptamine]",PPE achieved (fraction of participants who achieved a PPEQ Total Score of at least 75),healthy volunteers [1]; Part A 2 mg (n = 4),0/4
same,PPEQ Intensity (0-100),healthy volunteers [1]; Part A 2 mg (n = 4),16
same,PPEQ Loss of Control (0-100),healthy volunteers [1]; Part A 2 mg (n = 4),4
same,PPEQ Profoundness (0-100),healthy volunteers [1]; Part A 2 mg (n = 4),7
same,PPEQ Total Score (0-100),healthy volunteers [1]; Part A 2 mg (n = 4),9.0
same,PPE achieved (fraction of participants who achieved a PPEQ Total Score of at least 75),healthy volunteers [1]; Part A 6 mg (n = 6),1/6
same,PPEQ Intensity (0-100),healthy volunteers [1]; Part A 6 mg (n = 6),53
same,PPEQ Loss of Control (0-100),healthy volunteers [1]; Part A 6 mg (n = 6),37
same,PPEQ Profoundness (0-100),healthy volunteers [1]; Part A 6 mg (n = 6),42
same,PPEQ Total Score (0-100),healthy volunteers [1]; Part A 6 mg (n = 6),43.8
same,PPE achieved (fraction of participants who achieved a PPEQ Total Score of at least 75),healthy volunteers [1]; Part A 12 mg (n = 4),2/4
same,PPEQ Intensity (0-100),healthy volunteers [1]; Part A 12 mg (n = 4),78
same,PPEQ Loss of Control (0-100),healthy volunteers [1]; Part A 12 mg (n = 4),69
same,PPEQ Profoundness (0-100),healthy volunteers [1]; Part A 12 mg (n = 4),51
same,PPEQ Total Score (0-100),healthy volunteers [1]; Part A 12 mg (n = 4),65.5
same,PPE achieved (fraction of participants who achieved a PPEQ Total Score of at least 75),healthy volunteers [1]; Part A 18 mg (n = 4),1/4
same,PPEQ Intensity (0-100),healthy volunteers [1]; Part A 18 mg (n = 4),62
same,PPEQ Loss of Control (0-100),healthy volunteers [1]; Part A 18 mg (n = 4),80
same,PPEQ Profoundness (0-100),healthy volunteers [1]; Part A 18 mg (n = 4),36
same,PPEQ Total Score (0-100),healthy volunteers [1]; Part A 18 mg (n = 4),59.2
same,PPE achieved (fraction of participants who achieved a PPEQ Total Score of at least 75),healthy volunteers [1]; [3],4/4
same,PPEQ Intensity (0-100),healthy volunteers [1]; [3],97
same,PPEQ Loss of Control (0-100),healthy volunteers [1]; [3],94
same,PPEQ Profoundness (0-100),healthy volunteers [1]; [3],78
same,PPEQ Total Score (0-100),healthy volunteers [1]; [3],89.3
same,first psychedelic symptoms after the inhalation (onset),"healthy volunteers [1]; all participants, 2 mg to 18 mg via inhalation",within a few seconds
same,"ECG, safety laboratory analyses, CADSS and cognitive tests (PVT, DSST, PMT)",healthy volunteers [2]; 2 mg to 18 mg via inhalation,unremarkable
same,inhalation-related adverse events,"healthy volunteers [2]; Part A and Part B, 2 mg to 18 mg via inhalation",No inhalation-related adverse events
same,Adverse events reported: Nausea (number of volunteers),healthy volunteers [2]; [4],2
same,Adverse events reported: Tachycardia (number of volunteers),healthy volunteers [2]; [4],1
same,Adverse events reported: Vision blurred (number of volunteers),healthy volunteers [2]; [4],1
same,Adverse events reported: Anxiety (number of volunteers),healthy volunteers [2]; [5],1
same,Adverse events reported: Headache (number of volunteers),healthy volunteers [2]; [5],1
same,Adverse events reported: Nausea (number of volunteers),healthy volunteers [2]; [5],1
same,Adverse events reported: Clumsiness (number of volunteers),healthy volunteers [2]; [6],1
same,Adverse events reported: Feeling hot (number of volunteers),healthy volunteers [2]; [6],1
same,Adverse events reported: Headache (number of volunteers),healthy volunteers [2]; [6],1
same,Adverse events reported: Anxiety (number of volunteers),"healthy volunteers [2]; Part A, 12 mg (n = 4), Administration day, mild",1
same,Adverse events reported: Heart rate increased (number of volunteers),"healthy volunteers [2]; Part A, 12 mg (n = 4), Administration day, this event was moderate",1^1
same,Adverse events reported: Headache (number of volunteers),healthy volunteers [2]; [7],1
same,Adverse events reported: Nausea (number of volunteers),healthy volunteers [2]; [7],1
same,Adverse events reported: Abnormal dreams (number of volunteers),healthy volunteers [2]; [8],1
same,Adverse events reported: Fatigue (number of volunteers),healthy volunteers [2]; [8],1
same,Adverse events reported: Hallucination (number of volunteers),healthy volunteers [2]; [8],1
same,Adverse events reported: Hyperacusis (number of volunteers),healthy volunteers [2]; [8],1
same,Adverse events reported: Insomnia (number of volunteers),healthy volunteers [2]; [8],1
same,Adverse events reported: Mental fatigue (number of volunteers),healthy volunteers [2]; [8],1
same,Adverse events reported: Flashback (number of volunteers),"healthy volunteers [2]; Part A, 18 mg (n = 4), Day 7, mild",1
same,Adverse events reported: Nausea (number of volunteers),"healthy volunteers [2]; Part B, 6 mg (n = 4), Administration day, mild",1
same,Adverse events reported: Fatigue (number of volunteers),healthy volunteers [2]; [9],1
same,Adverse events reported: Head discomfort (number of volunteers),healthy volunteers [2]; [9],1
same,Adverse events reported: Headache (number of volunteers),healthy volunteers [2]; [9],1
same,Adverse events reported: Nausea (number of volunteers),healthy volunteers [2]; [9],1
same,Adverse events reported,"healthy volunteers [2]; Part B, 18 mg (n = 1), after 12 mg and 6 mg",None reported
same,changes in vital parameters,"healthy volunteers [2]; shortly after administration, 2 mg to 18 mg via inhalation","temporary, not clinically relevant increase in heart rate and blood pressure"
